Where two headings read alike, the source gives them in different places.
Columns and labels:
[1] = test system: MRSA; assay: Drug resistance study (serial passages); type: cell-based, methicillin-resistant Staphylococcus aureus; conditions: after 14 generations
Description: Since the abuse of antibiotics, antibacterial drug resistance has become an increasingly serious threat. Thus, it is of great importance to assess the drug resistance of newly developed lead compounds.
The first generation of MIC data of YW-1 against MRSA and E. coli was already obtained in an MIC study. Then, the MRSA of the first generation in the well next to the last clear well was diluted to the mid-log phase, and MICs were tested at 37 °C. This step was repeated for 14 passages. The data of drug resistance for E. coli were obtained using the same method with bacterial E. coli.

[2] = test system: Human red blood cells; assay: Hemolytic activity; conditions: HC50 over MIC against MRSA
Description: (§10) Human red blood cells were washed with 1 × PBS buffer, then centrifuged at 700 g for 10 min. After discarding the top clear solution, the bottom cells were diluted to obtain 5% solution using 1 × PBS buffer.
(§11) Then, 50 μL of cell solution was injected into 96-well plates. Following this, 50 μL of synthesized compounds with different concentrations from 250 to 1.95 μg/mL were added into 96-well plates. Then, the mixture was incubated for 1 h at 37 °C. After centrifuging at 3500× g rpm for 10 min, 30 μL of the supernatant was transferred into a new 96-well plate with 100 μL of 1 × PBS buffer. With the same microplate reader, the data of absorbance at 540 nm were compared. Positive control: 2% Triton-100. Calculation formula: percentage of hemolysis = [(Absorbance of sample-Absorbance of PBS)/(Absorbance of Triton-Absorbance of PBS)] × 100

[3] = test system: E. coli (ATCC 25922); type: cell-based; conditions: ATCC 25922, 16 h
Description: (§1) Chemical reagents and solvents were bought from Sigma Aldrich, Oakwood, TCI, and Chem-Impex. Final products were purified with Waters Breeze 2 HPLC and lyophilized using Labconco lyophilizer. HPLC traces of the final product were collected using 5–95% acetonitrile in water with 0.1% HPLC-grade TFA for at least 40 min. The nuclear magnetic resonance (NMR) data were collected using the Agilent 600 MHz NEO instrument. High-resolution mass spectra of compounds (Table S1) were collected using an Agilent Technologies 6540 UHD accurate-mass Q-TOF LC/MS spectrometer. Antibacterial assays and mechanism of action studies were performed using a Biotec multimode microplate reader synergy H4. Six different species of bacteria were used for bacteria assay tests, such as MRSA (ATCC 33591), MRSE (RP62A), VREF (ATCC 700802), E. coli (ATCC 25922), K. pneumoniae (ATCC 13383), and P. aeruginosa (ATCC 27853).
(§2) Concisely, E. coli, K. pneumoniae, P. aeruginosa, MRSA, MRSE, and VREF were cultivated in 37 °C TSB medium for 16 h. Subsequently, 4 ml of new TSB medium was added to 100 μL of cultivated bacterial solution and incubated for another 6 h to reach the mid-log phase. Next, 96-well plates were injected with 50 μL of bacterial solution that reached mid-log phase and 50 μL of compounds with different concentrations, which ranged from 0.75–25 μg/mL. Then, the 96-wells plates were incubated for another 16 h at 37 °C. After 16 h, MICs were determined by a multimode microplate reader.

[4] = test system: MRSE (RP62A); type: cell-based; conditions: 16 h
Description: as §1, §2

[5] = test system: E.F. (VREF, ATCC 700802); type: cell-based; conditions: ATCC 700802, 16 h
Description: as §1, §2

[6] = test system: K. pneumoniae (ATCC 13383); type: cell-based; conditions: ATCC 13383, 16 h
Description: as §1, §2

[7] = test system: P. aeruginosa (ATCC 27853); type: cell-based; conditions: ATCC 27853, 16 h
Description: as §1, §2

[8] = test system: MRSA (ATCC 33591); type: cell-based, methicillin-resistant Staphylococcus aureus
Description: as §1, §2

[9] = test system: Human red blood cells; conditions: red cells of human, 1 h
Description: as §10, §11

[10] = test system: E. coli; assay: Inner membrane (IM) permeabilization (ONPG hydrolysis assay); type: cell-based; conditions: 8 × MIC, 4 × MIC, 2 × MIC and 1 × MIC, 37 °C
Description: We next used the o-nitrophenyl-β-d-galactopyranoside (ONPG) hydrolysis assay to test the ability of the lead compound YW-1 to permeabilize the inner membrane of Gram-negative bacteria (Figure 3B). If the lead compound YW-1 compromised the bacterial inner membrane, ONPG would interact with the cytoplasmic enzyme β-galactosidase to form o-nitrophenol, which can be measured under OD 420 nm.
Mid-log phase E. coli was obtained in Mueller Hinton Broth with 2% lactose at 37 °C; then, it was centrifuged at 3000× g rpm for 10 min at 4 °C and washed with 20 mM glucose and 1.5 mM ONPG in […] HEPES buffer one time. Next, the bacterial solution was diluted until OD600 = 0.1 using the same buffer. Following this, 50 μL of diluted bacterial solution was injected into a 96-well plate, and 50 μL of YW-1 in different concentrations and melittin were injected into the bacterial solution, respectively. The OD420 was read at 37 °C every 6 min until the […] reached the highest plateau.

[11] = test system: E. coli; assay: Membrane depolarization study (diSC35 dye); type: cell-based
Excerpt: (§3) To probe the mechanism of antibacterial activity, we first carried out a membrane depolarization study with the membrane potential-sensitive dye 3,3′-dipropylthiadicarbocyanine iodide (diSC35) (Figure 2A,B). […] However, if the membrane is disrupted, and the fluorophore is released from the membrane, fluorescence will improve dramatically.

[12] = test system: MRSA; assay: Transmission electron microscopy (TEM); type: cell-based, methicillin-resistant Staphylococcus aureus; conditions: 2 × MIC, 2 h
Description: (§4) TEM microscopy offers convenient access to check the intactness of cell membranes. The cell membranes of MRSA and E. coli were intact.
(§5) An amount of 30 μL of mid-log phase MRSA and E. coli was diluted to 3 mL in TSB medium with 2 × MIC of YW-1, and the mixture was incubated for 2 h. The bacterial pellets were centrifuged at 3000× g rpm for 10 min. For the next step, PBS buffer was used to wash three times. Then, the suspended bacterial samples were dropped on grids and dried in a vacuum oven at 45 °C. TEM images were obtained using a FEI Morgagni 268D TEM, with an Olympus MegaView III CAMERA on the microscope, at 60 kV.

[13] = test system: MRSA; assay: Membrane depolarization study (diSC35 dye); type: cell-based, methicillin-resistant Staphylococcus aureus
Excerpt: as §3

[14] = test system: E. coli; assay: Transmission electron microscopy (TEM); type: cell-based; conditions: 2 × MIC, 2 h
Description: as §4, §5

[15] = test system: MRSA; assay: Fluorescence microscopy (DAPI / PI staining); type: cell-based, methicillin-resistant Staphylococcus aureus; conditions: 2 × MIC, 2 h at 37 °C, PI channel
Description: (§6) To further assess that the bacteria were killed with YW-1 by comprising the cell membrane, we conducted a fluorescence microscopy experiment. Two dyes, 4′,6-diamidino-2-phenylindole (DAPI) and propidium iodide (PI), were employed in this experiment. […] Instead, DAPI can be used to stain both dead and live cells because it is cell-permeable.
(§7) A total of 30 μL of mid-log phase bacterial solution was diluted to 3 mL in TSB medium with 2 × MIC of YW-1. The mixture was incubated for 2 h at 37 °C. Following this, the bacterial solution was centrifuged at 3000 rpm for 10 min. The top solution was thrown away, the bottom bacterial pellets were washed with PBS buffer, and PI (5 μg/mL) and DAPI (10 μg/mL) were added sequentially on ice under a dark environment. After dyeing with PI and DAPI, the bacterial cells were washed with PBS buffer. Immediately after 100 μL of PBS was added to suspend the bacterial cell, 10 μL of the suspended solution was dropped onto the slide, and data were obtained using a Zeiss Axiovert 200 inverted microscope.

[16] = test system: E. coli; assay: Outer membrane (OM) permeabilization (NPN uptake); type: cell-based; conditions: 1 × MIC, compared with 1% Triton
Excerpt: Next, using E. coli as a microorganism, we evaluated the OM permeabilization of YW-1. In aqueous conditions, 1-N-Phenylnaphthylamine (NPN) is blocked by the cell wall. However, if the OM is permeabilized, and NPN is taken up as a result, the fluorescence intensity will increase, compared to non-treated OM [13].

[17] = test system: E. coli; assay: Fluorescence microscopy (DAPI / PI staining); type: cell-based; conditions: 2 × MIC, 2 h at 37 °C, PI channel
Description: as §6, §7

[18] = test system: E. coli; assay: Time-kill kinetics study; type: cell-based; conditions: 4 × MIC and 8 × MIC, TSB medium
Description: (§8) To evaluate how rapidly bacteria could be eradicated, the lead compound YW-1 was examined for its ability to eradicate MRSA and E. coli by studying the time-kill kinetics.
(§9) Different concentrations of YW-1 and ciprofloxacin were mixed with 300 μL of mid-log phase bacterial solution in TSB medium. The mixture was incubated for 0, 10, and 30 min and 1 and 2 h, respectively. At the time, E. coli were diluted 100-fold, and the MRSA was diluted 100-fold. A total of 100 μL of each was transferred on TSB agar plates. After 16 h at 37 °C, CFUs were read using the Biotec multimode microplate reader.

[19] = test system: MRSA; assay: Time-kill kinetics study; type: cell-based, methicillin-resistant Staphylococcus aureus; conditions: 4 × MIC and 8 × MIC, TSB medium
Description: as §8, §9

[20] = TSB medium, 16 h at 37 °C, compounds 0.75–25 μg/mL, microplate reader

Row | SMILES | Selectivity Index (HC50/MICMRSA) [2] | MIC, Gram-Negative (−), E. coli [3] [µg/mL] | MIC, Gram-Positive (+), MRSE [4] [µg/mL] | MIC, Gram-Positive (+), E.F. [5] [µg/mL] | MIC, Gram-Negative (−), K.P. [6] [µg/mL] | MIC, Gram-Negative (−), P.A. [7] [µg/mL] | MIC, Gram-Positive (+), MRSA [8, 20] [µg/mL] | HC50 [9] [µg/mL] | MIC, Gram-Positive (+), MRSA ([8]; ATCC 33591, 16 h) [µg/mL] | also measured
1 | O=C(O)c1cn(C2CC2)c2cc(N3CCNCC3)c(F)cc2c1=O [ciprofloxacin, reference compound] |  |  |  |  |  |  |  |  |  | increase in MIC (drug resistance) [1]: about 100 fold
2 | CCCCCCCCCCCCCCCC(=O)N[C@@H](Cc1ccc(O)cc1)CN(CC(N)=O)C(=O)CCN(C[C@@H](N)CCCCN)C(=O)CCN [YW-4] | >83.3 | 3.0 to 6.0 | 3.0 to 6.0 | 3.0 to 6.0 | >25 | >25 | 0.75 to 1.5 | >125 |  | 
3 | CCCCCCCCCCCCCCCC(=O)N[C@@H](Cc1ccccc1)CN(CC(N)=O)C(=O)CCN(C[C@@H](N)CCCCN)C(=O)CCN [YW-2] | >41.7 | 3.0 to 6.0 | 1.5 to 3 | 1.5 to 3 | 6 to 12.5 | 12.5 to 25 |  | >125 | 1.5 to 3 | 
4 | CCCCCCCCCCCCCCCC(=O)N[C@@H](CO)CN(CC(N)=O)C(=O)CCN(C[C@@H](N)CCCCN)C(=O)CCN [YW-5] | >41.7 | 6 to 12.5 |  |  |  |  |  | >125 | 1.5 to 3 | 
5 | CCCCCCCCCCCCCCCC(=O)N[C@@H](C)CN(CC(N)=O)C(=O)CCN(C[C@@H](N)CCCCN)C(=O)CCN [YW-3] | >83.3 | 3.0 to 6.0 | 6 to 12.5 | 3.0 to 6.0 | >25 | 6 to 12.5 | 0.75 to 1.5 | >125 |  | 
6 | CCCCCCCCCCCCCCCC(=O)N[C@@H](CCCCNC(=N)N)CN(CC(N)=O)C(=O)CCN(C[C@@H](N)CCCCN)C(=O)CCN [YW-7] | >83.3 | 3.0 to 6.0 | 3.0 to 6.0 | 3.0 to 6.0 | >25 | 12.5 to 25 | 0.75 to 1.5 | >125 |  | 
7 | CCCCCCCCCCCCCCCC(=O)N[C@@H](CC(C)C)CN(CC(N)=O)C(=O)CCN(C[C@@H](N)CCCCN)C(=O)CCN [YW-1] | >41.7 | 3.0 to 6.0 | 1.5 to 3 | 1.5 to 3 | 12.5 to 25 | 6 to 12.5 |  | >125 | 1.5 to 3 | inner membrane permeabilization, OD 420 nm intensity [10]: enhanced to a great extent; fluorescence intensity of diSC35 (membrane depolarization) ([11]; E. coli treated with different concentrations): dose-dependent increases in fluorescence intensity; fluorescence of diSC35 compared with positive control Triton ([11]; E. coli, at a two-fold of MIC or above): even more intensive fluorescence than the positive control Triton; membrane intactness by TEM [12]: the membranes clearly demonstrated damages; fluorescence intensity of diSC35 (membrane depolarization) ([13]; MRSA treated with different concentrations): dose-dependent increases in fluorescence intensity; fluorescence of diSC35 compared with positive control Triton ([13]; MRSA, at a two-fold of MIC or above): even more intensive fluorescence than the positive control Triton; membrane intactness by TEM [14]: the membranes clearly demonstrated damages; increase in MIC (drug resistance) [1]: did not have an obvious change in MIC; PI staining (compromised membrane) [15]: red fluorescence was observed under the PI channel; Outer membrane permeability [16]: 98%; PI staining (compromised membrane) [17]: red fluorescence was observed under the PI channel; time to remove bacteria thoroughly [18]: ≤ 2 h; time to remove bacteria thoroughly [19]: ≤ 2 h
8 | CCCCCCCCCCCCCCCC(=O)N[C@@H](CCCCN)CN(CC(N)=O)C(=O)CCN(C[C@@H](N)CCCCN)C(=O)CCN [YW-6] | >83.3 | 6 to 12.5 |  |  |  |  | 0.75 to 1.5 | >125 |  | 

— publication PMC10094648, “Short, Lipidated Dendrimeric γ-AApeptides as New Antimicrobial Peptidomimetics” (International Journal of Molecular Sciences, 2023)
